These are literature values, as cited in paper PMC6978833 (ACS Central Science, 2019).

For this data set the following is noted: N3 of base in TAT / CGC triplets.

Turning to `Cc1c[nH]c(=O)[nH]c1=O` [thymine], the “pKa (N3 protonation)” value is reported as about 10.
Take `Nc1cc[nH]c(=O)n1` [cytosine]: the “pKa (N3 protonation)” value was about 6.5.
